Results as given in US12325697B2 (Nimbus Clio, Inc., priority 2021, dated 2025).
Where a name gives a salt, the structure may show the parent alone.

Legend:
[1] = tested on: Jurkat (clone E6-1) cells, NFAT luciferase reporter; assay: Jurkat Reporter Assay (NFAT Luciferase); format: cell-based; conditions: Homo sapiens, anti-CD3 stimulation, 6 hr, read-out: Jurkat NFAT EC50
[2] = biological target: Recombinant human Cbl-b (aa 36-427) (Homo sapiens (Human), UniProt Q13191); assay: Cbl-b Biochemical Assay (TR-FRET); conditions: read-out: TR-FRET hCbl-b IC50
Chain of Recombinant human Cbl-b (aa 36-427) (Q13191 36-427): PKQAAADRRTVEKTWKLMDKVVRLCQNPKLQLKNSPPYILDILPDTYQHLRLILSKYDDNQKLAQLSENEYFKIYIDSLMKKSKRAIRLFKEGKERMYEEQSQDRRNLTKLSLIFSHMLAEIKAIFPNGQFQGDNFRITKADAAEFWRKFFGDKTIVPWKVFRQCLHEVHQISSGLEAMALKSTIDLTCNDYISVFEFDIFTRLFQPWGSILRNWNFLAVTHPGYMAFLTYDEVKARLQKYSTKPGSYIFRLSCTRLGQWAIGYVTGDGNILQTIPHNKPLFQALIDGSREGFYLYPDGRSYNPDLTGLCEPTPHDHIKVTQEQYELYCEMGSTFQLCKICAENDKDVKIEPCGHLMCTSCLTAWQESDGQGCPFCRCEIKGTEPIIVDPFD
Summary of the method: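 IC50 from 4-parameter fit of % inhibition (DMSO max, reference-inhibitor min), duplicate ten-point series. Compound preincubated with 6 nM Cbl-b, then Src-Zap70 (1-2.5 nM)/0.5 mM ATP reaction 60 min RT; EDTA quench with labelled UBE2D2-Ub and streptavidin-terbium, 60 min, HTRF at 520 nm.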

| Compound | EC50 [1] | IC50 [2] |
| --- | --- | --- |
| Cn1cnnc1-c1ccccc1-c1cccc(N2Cc3c(cc(COC4CCN(C(=O)OC(C)(C)C)CC4)cc3C(F)(F)F)C2=O)c1 [BB-1, tert-Butyl 4-((2-(2′-(4-methyl-4H-1,2,4-triazol-3-yl)-[1,1′-biphenyl]-3-yl)-3-oxo-7-(trifluoromethyl)isoindolin-5-yl)methoxy)piperidine-1-carboxylate] | 10000 to 50000 nM | 200 to 1000 nM |
| CCNc1cc(-c2ccccc2-c2nncn2C)cc(N2Cc3c(cc(COC4CCNCC4)cc3C(F)(F)F)C2=O)n1 [BA-4, 2-(6-(Ethylamino)-4-(2-(4-methyl-4H-1,2,4-triazol-3-yl)phenyl)pyridin-2-yl)-6-((piperidin-4-yloxy)methyl)-4-(trifluoromethyl)isoindolin-1-one, HCl] | 1000 to 10000 nM | ≤ 200 nM |
| CCNc1cc(-c2ccc(OC)cc2-c2nncn2C)cc(N2Cc3c(cccc3C(F)(F)F)C2=O)n1 [AFB-8, 2-[6-(Ethylamino)-4-[4-methoxy-2-(4-methyl-1,2,4-triazol-3-yl)phenyl]pyridin-2-yl]-4-(trifluoromethyl)-3H-isoindol-1-one] | 200 to 1000 nM | ≤ 200 nM |
| CCNc1cc(-c2c(-c3nncn3C)cnn2C)cc(N2Cc3c(cc(CNCCOCCOCCOCCNC(=O)CCc4ccc5n4[B-](F)(F)[N+]4=C(c6ccc[nH]6)C=CC4=C5)cc3C(F)(F)F)C2=O)n1 [ACZ-5] | 10000 to 50000 nM | ≤ 200 nM |
| CCNc1cc(-c2ccccc2-c2nncn2C)cc(N2Cc3c(cc(CN4CCC(F)(F)[C@H](C)C4)cc3C(F)(F)F)C2=O)n1 [AU-2, (R)-6-((4,4-Difluoro-3-methylpiperidin-1-yl)methyl)-2-(6-(ethylamino)-4-(2-(4-methyl-4H-1,2,4-triazol-3-yl)phenyl)pyridin-2-yl)-4-(trifluoromethyl)isoindolin-1-one] | 200 to 1000 nM | ≤ 200 nM |
| Cn1cnnc1-c1cc(C#N)ccc1-c1cccc(C(=O)Nc2cc(CN[C@@H]3CCC[C@@H]3O)cc(C(F)(F)F)c2N)c1 [ADW-5, N-[2-Amino-5-({[(1R,2S)-2-hydroxycyclopentyl]amino}methyl)-3-(trifluoromethyl)phenyl]-4′-cyano-2′-(4-methyl-1,2,4-triazol-3-yl)-[1,1′-biphenyl]-3-carboxamide] | 10000 to 50000 nM | 1000 to 10000 nM |
| CCNc1cc(-c2ccccc2-c2nncn2C)cc(N2Cc3c(cc(CN4CC[C@@H](O)C4)cc3C(F)(F)F)C2=O)n1 [AT-1, (R)-2-(6-(Ethylamino)-4-(2-(4-methyl-4H-1,2,4-triazol-3-yl)phenyl)pyridin-2-yl)-6-((3-hydroxypyrrolidin-1-yl)methyl)-4-(trifluoromethyl)isoindolin-1-one] | 200 to 1000 nM | ≤ 200 nM |
| CCNc1cc(-c2ccc(C#N)cc2-c2nncn2C)cc(N2Cc3c(cc(N4CCCC4)cc3C(F)(F)F)C2=O)n1 [AEP-2, 4-[2-(Ethylamino)-6-[1-oxo-6-(pyrrolidin-1-yl)-4-(trifluoromethyl)-3H-isoindol-2-yl]pyridin-4-yl]-3-(4-methyl-1,2,4-triazol-3-yl)benzonitrile] | 10000 to 50000 nM | 200 to 1000 nM |
| Cn1cnnc1-c1cc(C#N)ccc1-c1cccc(N2Cc3c(cc(CNCCO)cc3C(F)(F)F)C2=O)c1 [AEA-2, 3′-(6-{[(2-Hydroxyethyl)amino]methyl}-1-oxo-4-(trifluoromethyl)-3H-isoindol-2-yl)-2-(4-methyl-1,2,4-triazol-3-yl)-[1,1′-biphenyl]-4-carbonitrile] | 1000 to 10000 nM | ≤ 200 nM |
| CCNc1cc(-c2c(-c3nncn3C)cnn2C)cc(N2Cc3c(cc(CO[C@H]4CCC[C@H]4O)cc3C(F)(F)F)C2=O)n1 [ADI-1, 2-[6-(Ethylamino)-4-[2-methyl-4-(4-methyl-1,2,4-triazol-3-yl)pyrazol-3-yl]pyridin-2-yl]-6-({[(1S,2R)-2-hydroxycyclopentyl]oxy}methyl)-4-(trifluoromethyl)-3H-isoindol-1-one] | 200 to 1000 nM | ≤ 200 nM |
| CCNc1cc(-c2ccc(C(=O)OC)cc2-c2nncn2C)cc(N2Cc3c(cccc3C(F)(F)F)C2=O)n1 [AFC-1, Methyl 4-[2-(ethylamino)-6-[1-oxo-4-(trifluoromethyl)-3H-isoindol-2-yl]pyridin-4-yl]-3-(4-methyl-1,2,4-triazol-3-yl) benzoate] | 10000 to 50000 nM | 1000 to 10000 nM |
| C[C@H](Cc1nncn1C)c1cc(Cl)nc(N2Cc3c(cccc3C(F)(F)F)C2=O)c1 [AHJ-11, (R)-2-(6-Chloro-4-(1-(4-methyl-4H-1,2,4-triazol-3-yl)propan-2-yl)pyridin-2-yl)-4-(trifluoromethyl)isoindolin-1-one] | 10000 to 50000 nM | 1000 to 10000 nM |
| C[C@H](Cc1nncn1C)c1cc(NS(C)(=O)=O)nc(N2Cc3c(cccc3C(F)(F)F)C2=O)c1 [AHK-1, N-[4-[(2R)-1-(4-Methyl-1,2,4-triazol-3-yl)propan-2-yl]-6-[1-oxo-4-(trifluoromethyl)-3H-isoindol-2-yl]pyridin-2-yl]methanesulfonamide] | 10000 to 50000 nM | 200 to 1000 nM |
| Cn1cnnc1-c1ccccc1-c1cccc(N2Cc3c(cc(Br)cc3C(F)(F)F)C2=O)c1 [AY-1, 6-Bromo-2-(2′-(4-methyl-4H-1,2,4-triazol-3-yl)-[1,1′-biphenyl]-3-yl)-4-(trifluoromethyl)isoindolin-1-one] | 10000 to 50000 nM | 200 to 1000 nM |
| CCNc1cc(-c2c(-c3nncn3C)cnn2C)cc(N2Cc3c(cc(CNCCOCCOCCOCCNC(=O)CCc4ccc5n4[B-](F)(F)[N+]4=C(C)C=C(C)C4=C5)cc3C(F)(F)F)C2=O)n1 [ADD-2, 4-{2-[(1-{2-[6-(Ethylamino)-4-[2-methyl-4-(4-methyl-1,2,4-triazol-3-yl)pyrazol-3-yl]pyridin-2-yl]-3-oxo-7-(trifluoromethyl)-1H-isoindol-5-yl}-5,8,11-trioxa-2-azatridecan-13-yl)carbamoyl]ethyl}-2,2-difluoro-10,12-dimethyl-1lambda5,3-diaza-2-boratricyclo[7.3.0.0^{3,7}]dodeca-1(12),4,6,8,10-pentaen-1-ylium-2-uide] | 10000 to 50000 nM | 10000 to 50000 nM |
| O=C1c2cc(CNCC3(O)CCC3)cc(C(F)(F)F)c2CN1c1ccccc1 [AX-3, 6-((((1-Hydroxycyclobutyl)methyl)amino)methyl)-2-phenyl-4-(trifluoromethyl)isoindolin-1-one] | 10000 to 50000 nM | 10000 to 50000 nM |
| CCOc1cc(-c2ccc(C#N)cc2-c2nncn2C)cc(N2Cc3c(cc(COCCNC)cc3C(F)(F)F)C2=O)n1 [AHE-4] | 1000 to 10000 nM | ≤ 200 nM |
| CCNc1cc(-c2ccc(CO)cc2-c2nncn2C)cc(N2Cc3c(cccc3C(F)(F)F)C2=O)n1 [AFD-1, 2-[6-(ethylamino)-4-[4-(hydroxymethyl)-2-(4-methyl-1,2,4-triazol-3-yl)phenyl]pyridin-2-yl]-4-(trifluoromethyl)-3H-isoindol-1-one] | 10000 to 50000 nM | ≤ 200 nM |
| Cn1cnnc1-c1ccccc1-c1cccc(N2Cc3c(cc(COC4CCOCC4)cc3C(F)(F)F)C2=O)c1 [BD-3, 2-(2′-(4-Methyl-4H-1,2,4-triazol-3-yl)-[1,1′-biphenyl]-3-yl)-6-(((tetrahydro-2H-pyran-4-yl)oxy)methyl)-4-(trifluoromethyl)isoindolin-1-one] | 1000 to 10000 nM | ≤ 200 nM |
| CCNc1cc(-c2c(-c3nncn3C)cnn2C)cc(N2Cc3c(cc(COCC4(F)CCC4)cc3C(F)(F)F)C2=O)n1 [AFP-2, 2-[6-(Ethylamino)-4-[2-methyl-4-(4-methyl-1,2,4-triazol-3-yl)pyrazol-3-yl]pyridin-2-yl]-6-{[(1-fluorocyclobutyl)methoxy]methyl}-4-(trifluoromethyl)-3H-isoindol-1-one] | 200 to 1000 nM | ≤ 200 nM |
| Cn1cnnc1-c1cc(C#N)ccc1-c1cccc(N2Cc3c(cc(CO)cc3C(F)(F)F)C2=O)c1 [ADG-3, 3′-[6-(Hydroxymethyl)-1-oxo-4-(trifluoromethyl)-3H-isoindol-2-yl]-2-(4-methyl-1,2,4-triazol-3-yl)-[1,1′-biphenyl]-4-carbonitrile] | 10000 to 50000 nM | ≤ 200 nM |
| Cn1cnnc1-c1cc(C#N)ccc1-c1ccnc(N2Cc3c(cc(CO)cc3C(F)(F)F)C2=O)c1 [AEX-2, 4-{2-[6-(Hydroxymethyl)-1-oxo-4-(trifluoromethyl)-3H-isoindol-2-yl]pyridin-4-yl}-3-(4-methyl-1,2,4-triazol-3-yl) benzonitrile] | 1000 to 10000 nM | ≤ 200 nM |
| Cn1cnnc1-c1cc(C(N)=O)ccc1-c1cccc(N2Cc3c(cc(CO)cc3C(F)(F)F)C2=O)c1 [ADK-1, 3′-[6-(Hydroxymethyl)-1-oxo-4-(trifluoromethyl)-3H-isoindol-2-yl]-2-(4-methyl-1,2,4-triazol-3-yl)-[1,1′-biphenyl]-4-carboxamide] | 10000 to 50000 nM | 1000 to 10000 nM |
| CN1CCC(OCc2cc3c(c(C(F)(F)F)c2)CN(c2cccc(-c4ccccc4-c4nncn4C)c2)C3=O)CC1 [BC-4, 2-(2′-(4-Methyl-4H-1,2,4-triazol-3-yl)-[1,1′-biphenyl]-3-yl)-6-(((1-methylpiperidin-4-yl)oxy)methyl)-4-(trifluoromethyl)isoindolin-1-one] | 1000 to 10000 nM | 200 to 1000 nM |
| CN(Cc1cc2c(c(C(F)(F)F)c1)CN(c1cc(-c3ccc(C#N)cc3-c3nncn3C)cc(C3CC3)n1)C2=O)C(=O)OC(C)(C)C [AGY-3, tert-Butyl N-[(2-{4-[4-cyano-2-(4-methyl-1,2,4-triazol-3-yl)phenyl]-6-cyclopropylpyridin-2-yl}-3-oxo-7-(trifluoromethyl)-1H-isoindol-5-yl)methyl]-N-methylcarbamate] | 200 to 1000 nM | ≤ 200 nM |
| CCNc1cc(-c2c(-c3nncn3C)cnn2C)cc(N2Cc3c(cc(COc4cnoc4)cc3C(F)(F)F)C2=O)n1 [ADE-2, 2-[6-(Ethylamino)-4-[2-methyl-4-(4-methyl-1,2,4-triazol-3-yl)pyrazol-3-yl]pyridin-2-yl]-6-[(1,2-oxazol-4-yloxy)methyl]-4-(trifluoromethyl)-3H-isoindol-1-one] | 1000 to 10000 nM | ≤ 200 nM |
